Patent publication US20240132513A1, “BENZAZEPINE DERIVATIVES, COMPOSITIONS, AND METHODS FOR TREATING COGNITIVE IMPAIRMENT” (AGENEBIO, INC., priority 2022, published 2024)
Like-named read-outs stand apart in the source and are kept apart here.

Tests used:
[1] = target: T1, GABAA α5 receptor (Rattus norvegicus, UniProt P19969); experiment: GABAA α5 receptor occupancy with Ro 15-4513 tracer; type: in vivo, Long Evans rats; conditions: i.v.
T1 construct: from tissue; host or cells: rat brain in vivo; hippocampus versus cerebellum
T1 sequence (P19969 32-464 limits assumed): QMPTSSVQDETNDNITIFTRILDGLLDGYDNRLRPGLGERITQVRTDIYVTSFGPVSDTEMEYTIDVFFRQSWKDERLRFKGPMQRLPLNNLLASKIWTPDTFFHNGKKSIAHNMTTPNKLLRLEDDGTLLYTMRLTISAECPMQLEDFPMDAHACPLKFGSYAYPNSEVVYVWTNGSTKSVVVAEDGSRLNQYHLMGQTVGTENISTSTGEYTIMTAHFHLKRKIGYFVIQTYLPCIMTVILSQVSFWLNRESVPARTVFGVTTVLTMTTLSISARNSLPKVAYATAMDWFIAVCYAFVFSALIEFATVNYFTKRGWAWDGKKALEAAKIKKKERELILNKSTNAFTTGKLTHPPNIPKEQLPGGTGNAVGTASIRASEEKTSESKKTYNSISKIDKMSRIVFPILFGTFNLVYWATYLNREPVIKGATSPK
Description: Food and water were available ad libitum.

[2] = target: T2, GABAA R (α5β2γ2) (Homo sapiens, UniProt P18507+P31644); experiment: Positive allosteric modulator activity: potentiation of EC20 GABA current in oocytes; type: cell-based
T2 construct: expressed in transfected cells
T2 sequence (P31644 32-462): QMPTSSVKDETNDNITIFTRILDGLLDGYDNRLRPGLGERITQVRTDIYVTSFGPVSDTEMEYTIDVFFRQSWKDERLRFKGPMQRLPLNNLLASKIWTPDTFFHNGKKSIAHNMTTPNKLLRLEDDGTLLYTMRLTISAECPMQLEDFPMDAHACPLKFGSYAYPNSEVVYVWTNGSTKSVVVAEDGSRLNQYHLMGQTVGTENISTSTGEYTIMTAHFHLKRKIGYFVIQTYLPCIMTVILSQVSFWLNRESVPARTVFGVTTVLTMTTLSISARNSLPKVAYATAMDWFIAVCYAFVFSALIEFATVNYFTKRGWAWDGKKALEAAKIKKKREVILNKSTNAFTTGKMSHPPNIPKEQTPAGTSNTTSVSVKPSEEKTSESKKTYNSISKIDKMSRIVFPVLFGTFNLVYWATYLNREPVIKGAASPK
T2 sequence (P47870 25-512 partner limits assumed): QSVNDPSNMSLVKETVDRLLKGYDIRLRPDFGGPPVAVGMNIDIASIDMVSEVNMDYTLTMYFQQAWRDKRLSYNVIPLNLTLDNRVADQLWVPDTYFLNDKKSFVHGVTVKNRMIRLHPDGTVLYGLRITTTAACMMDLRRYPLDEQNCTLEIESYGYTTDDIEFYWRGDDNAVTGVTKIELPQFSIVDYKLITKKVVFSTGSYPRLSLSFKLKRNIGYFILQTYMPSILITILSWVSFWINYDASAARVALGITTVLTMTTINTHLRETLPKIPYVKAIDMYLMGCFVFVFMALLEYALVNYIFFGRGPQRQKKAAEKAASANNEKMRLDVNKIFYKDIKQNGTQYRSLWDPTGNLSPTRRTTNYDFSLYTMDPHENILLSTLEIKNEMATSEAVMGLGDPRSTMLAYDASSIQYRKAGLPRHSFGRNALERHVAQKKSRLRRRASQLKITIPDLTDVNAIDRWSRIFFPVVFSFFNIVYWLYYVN
T2 sequence (P18507 40-475): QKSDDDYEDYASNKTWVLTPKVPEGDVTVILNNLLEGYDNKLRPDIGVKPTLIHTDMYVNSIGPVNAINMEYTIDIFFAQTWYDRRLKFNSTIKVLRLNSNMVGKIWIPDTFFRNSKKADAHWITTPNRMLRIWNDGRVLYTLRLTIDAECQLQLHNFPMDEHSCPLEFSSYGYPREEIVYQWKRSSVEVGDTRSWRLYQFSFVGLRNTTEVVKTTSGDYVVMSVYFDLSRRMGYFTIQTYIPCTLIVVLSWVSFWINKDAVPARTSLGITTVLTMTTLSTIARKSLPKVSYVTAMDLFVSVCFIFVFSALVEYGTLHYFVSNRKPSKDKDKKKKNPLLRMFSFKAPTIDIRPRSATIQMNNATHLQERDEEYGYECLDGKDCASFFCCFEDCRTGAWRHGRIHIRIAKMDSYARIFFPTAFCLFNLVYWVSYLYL
How it was run: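 Xenopus oocytes injected with 1 ng α5:β2:γ2 cDNA (1:1:10 by weight), tested day 2, voltage-clamped at −60 mV under MBS superfusion.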

[3] = target: α5β3γ2 GABAA R (Homo sapiens, UniProt P18507+P31644); experiment: Binding activity on GABAA R: inhibition of [3H]Ro15-1788 binding, α5 containing receptor
Sequence of α5β3γ2 GABAA R (P31644 32-462): as the sequence (P31644 32-462) above
Sequence of α5β3γ2 GABAA R (P28472 26-473 partner): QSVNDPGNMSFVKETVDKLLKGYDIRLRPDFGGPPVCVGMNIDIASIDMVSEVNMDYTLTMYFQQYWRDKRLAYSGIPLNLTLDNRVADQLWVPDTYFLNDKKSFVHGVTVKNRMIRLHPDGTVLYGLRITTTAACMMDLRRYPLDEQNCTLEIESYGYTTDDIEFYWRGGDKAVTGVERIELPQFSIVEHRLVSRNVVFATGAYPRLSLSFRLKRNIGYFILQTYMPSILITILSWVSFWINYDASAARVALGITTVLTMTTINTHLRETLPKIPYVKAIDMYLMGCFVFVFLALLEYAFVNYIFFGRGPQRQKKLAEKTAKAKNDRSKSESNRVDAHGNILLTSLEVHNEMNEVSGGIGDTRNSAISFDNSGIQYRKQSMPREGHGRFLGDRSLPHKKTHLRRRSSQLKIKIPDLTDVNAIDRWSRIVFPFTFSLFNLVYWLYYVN
Sequence of α5β3γ2 GABAA R (P18507 40-475): as the sequence (P18507 40-475) above
How it was run: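 Membranes from dexamethasone-induced (0.5 μM, 1 day) Ltk cells stably expressing α5β3γ2 receptors, 0.2 mg/ml protein, incubated with [3H]Ro15-1788 for 1 h at 4 °C in 50 mM KH2PO4/1 mM EDTA/0.2 M KCl, pH 7.4. Nonspecific binding with 10 μM diazepam; bound ligand by GF/B filtration and scintillation counting, triplicates.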

[4] = read-out: GABA α5 Functional Data: potentiation, @ 100 nM, EC20 GABA, ranges of the column heads
[5] = ranges of the column heads, [3H]Ro15-1788, Ltk cell membranes
[6] = read-out: GABA α5 Functional Data: potentiation

| Structure (SMILES) | activation at 0.1 µM [2, 4] [%] | Ki [3] [nM] | other results |
| --- | --- | --- | --- |
| CCOC(=O)c1ncn2c1Cn1c(C)nnc1-c1cc(OC)ccc1-2 | – | – | Ro 15-4513 binding in hippocampus ([1]; 0.01-10 mg/kg): blocked the binding of Ro154513 in the hippocampus; Ro 15-4513 levels/binding in cerebellum ([1]; 0.01-10 mg/kg): did not affect binding of Ro15413 in the cerebellum |
| COc1ccc2c(c1)-c1nn(C)cc1Cc1c(-c3nc([C@@H]4CCOC4)no3)ncn1-2 [Compound 260] | 5 to 20 | < 100 | – |
| Cn1cc2c(n1)-c1cc(Cl)ccc1-n1cnc(-c3nc([C@@H]4CCOC4)no3)c1C2 [Compound 261] | 5 to 20 | < 100 | – |
| COc1ccc2c(c1)-c1nn(C3CCOC3)cc1Cc1c(-c3nc(C(F)(F)F)no3)ncn1-2 (stereo not shown) [Compound 263] | 5 to 20 | < 100 | – |
| COc1ccc2c(c1)-c1nn(CC3CCCO3)cc1Cc1c(-c3nc(C(F)(F)F)no3)ncn1-2 (stereo not shown) [Compound 264] | 5 to 20 | < 100 | – |
| CCn1cc2c(n1)-c1cc(Cl)ccc1-n1cnc(-c3nc(CN4CCCC4)no3)c1C2 [Compound 266] | 5 to 20 | – | Ki [3, 5]: < 100 nM |
| CCn1cc2c(n1)-c1cc(OC)ccc1-n1cnc(-c3nc(CN4CCCC4)no3)c1C2 [Compound 267] | 5 to 20 | < 100 | – |
| CC(C)n1cc2c(n1)-c1cc(Cl)ccc1-n1cnc(-c3noc(C4COCCO4)n3)c1C2 (stereo not shown) [Compound 268] | 20 to 50 | < 100 | – |
| COCc1coc(-c2ncn3c2Cc2cn(C)nc2-c2cc(OC)ccc2-3)n1 [Compound 269] | 5 to 20 | < 100 | – |
| COCc1noc(-c2ncn3c2Cc2cn(C4CCOC4)nc2-c2cc(Cl)ccc2-3)n1 (stereo not shown) [Compound 275] | 5 to 20 | < 100 | – |
| Cn1cc2c(n1)-c1cc(Cl)ccc1-n1cnc(-c3nc(CN4CCOCC4)co3)c1C2 [Compound 276] | 20 to 50 | < 100 | – |
| CN(C)Cc1coc(-c2ncn3c2Cc2cn(C)nc2-c2cc(Cl)ccc2-3)n1 [Compound 277] | 20 to 50 | < 100 | – |
| COc1ccc2c(c1)-c1nn(C3CCOC3)cc1Cc1c(-c3noc(COCC(F)(F)F)n3)ncn1-2 (stereo not shown) [Compound 279] | 20 to 50 | < 100 | – |
| COC(C)(C)c1noc(-c2ncn3c2Cc2cn(CC4CCCO4)nc2-c2cc(Cl)ccc2-3)n1 (stereo not shown) [Compound 280] | 20 to 50 | < 100 | – |
| Clc1ccc2c(c1)-c1nn(CC3CCCO3)cc1Cc1c(-c3nc(C4CCOC4)no3)ncn1-2 (stereo not shown) [Compound 281] | 5 to 20 | < 100 | – |
| COc1ccc2c(c1)-c1nn(C)cc1Cc1c(-c3cnn(Cc4ccccn4)c3)ncn1-2 [Compound 282] | 5 to 20 | < 100 | – |
| COc1ccc2c(c1)-c1nn(CC3CCCO3)cc1Cc1c(-c3noc(C(C)(C)OC)n3)ncn1-2 (stereo not shown) [Compound 283] | > 50 | < 100 | – |
| COCc1coc(-c2ncn3c2Cc2cn(C)nc2-c2cc(Cl)ccc2-3)n1 [Compound 284] | – | – | activation at 0.1 µM [2, 6]: > 50%; Ki [3, 5]: < 100 nM |
| Cn1cc2c(n1)-c1cc(Cl)ccc1-n1cnc(-c3nc(COC4COC4)co3)c1C2 [Compound 285] | > 50 | < 100 | – |
| COc1ccc2c(c1)-c1nn(C)cc1Cc1c(-c3ncc(C)o3)ncn1-2 [Compound 286] | 5 to 20 | < 100 | – |
| COc1ccc2c(c1)-c1nn(CC3CCOC3)cc1Cc1c(-c3ncc(C)o3)ncn1-2 (stereo not shown) [Compound 287] | – | – | activation at 0.1 µM [2, 6]: 20 to 50%; Ki [3, 5]: < 100 nM |
| COCc1noc(-c2ncn3c2Cc2cn(CC4CCCO4)nc2-c2cc(Cl)ccc2-3)n1 (stereo not shown) [Compound 288] | > 50 | < 100 | – |
| COc1ccc2c(c1)-c1nn(C)cc1Cc1c(-c3nnc(C(F)(F)F)o3)ncn1-2 [Compound 289] | 5 to 20 | < 100 | – |

| Structure (SMILES) | activation at 0.1 µM [2, 4] [%] | Ki [3] [nM] | other results |
| --- | --- | --- | --- |
| COc1ccc2c(c1)-c1nn(C)cc1Cc1c(-c3nnc(C)o3)ncn1-2 [Compound 290] | 20 to 50 | < 100 | – |
| COc1ccc2c(c1)-c1nn(CC3CCCO3)cc1Cc1c(-c3noc(COCC(F)(F)F)n3)ncn1-2 (stereo not shown) [Compound 292] | 5 to 20 | < 100 | – |
| COCc1nc(-c2ncn3c2Cc2cn(CC4CCCO4)nc2-c2cc(OC)ccc2-3)no1 (stereo not shown) [Compound 293] | 20 to 50 | < 100 | – |
| COc1ccc2c(c1)-c1nn(CC3CCCO3)cc1Cc1c(-c3noc(C4COC4)n3)ncn1-2 (stereo not shown) [Compound 294] | > 50 | < 100 | – |
| COc1ccc2c(c1)-c1nn(CC3CCCO3)cc1Cc1c(-c3noc(C(F)(F)F)n3)ncn1-2 (stereo not shown) [Compound 295] | 20 to 50 | < 100 | – |
| COc1ccc2c(c1)-c1nn(C)cc1Cc1c(-c3noc(COC(C)(C)C)n3)ncn1-2 [Compound 296] | 20 to 50 | < 100 | – |
| COc1ccc2c(c1)-c1nn(C)cc1Cc1c(-c3noc(COC4CCCC4)n3)ncn1-2 [Compound 297] | 5 to 20 | < 100 | – |
| COCCn1cc2c(n1)-c1cc(OC)ccc1-n1cnc(-c3nc(COC)no3)c1C2 [Compound 300] | 20 to 50 | < 100 | – |
| COc1ccc2c(c1)-c1nn(CC3CCCO3)cc1Cc1c(-c3noc(COC(C)C)n3)ncn1-2 (stereo not shown) [Compound 301] | 20 to 50 | < 100 | – |
| COc1ccc2c(c1)-c1nn(CC3CCCO3)cc1Cc1c(-c3nnc(C(F)(F)F)o3)ncn1-2 (stereo not shown) [Compound 302] | 5 to 20 | < 100 | – |
| COc1ccc2c(c1)-c1nn(CC3CCCO3)cc1Cc1c(-c3nnc(COCC(F)(F)F)o3)ncn1-2 (stereo not shown) [Compound 303] | 20 to 50 | < 100 | – |
| COCc1nc(-c2ncn3c2Cc2cn(CC4CCCO4)nc2-c2cc(Cl)ccc2-3)no1 (stereo not shown) [Compound 304] | 5 to 20 | < 100 | – |
| Clc1ccc2c(c1)-c1nn(CC3CCCO3)cc1Cc1c(-c3noc(C4COCCO4)n3)ncn1-2 (stereo not shown) [Compound 305] | 5 to 20 | < 100 | – |
| COC(C)(C)c1nc(-c2ncn3c2Cc2cn(CC4CCCO4)nc2-c2cc(Cl)ccc2-3)no1 (stereo not shown) [Compound 306] | 5 to 20 | < 100 | – |
| Clc1ccc2c(c1)-c1nn(CC3CCCO3)cc1Cc1c(-c3noc(C4CCOC4)n3)ncn1-2 (stereo not shown) [Compound 308] | 20 to 50 | < 100 | – |
| FC(F)(F)COCc1nc(-c2ncn3c2Cc2cn(CC4CCCO4)nc2-c2cc(Cl)ccc2-3)no1 (stereo not shown) [Compound 309] | 5 to 20 | < 100 | – |
| COc1ccc2c(c1)-c1nn(CC3COC3)cc1Cc1c(-c3nc(COC4CCOC4)no3)ncn1-2 (stereo not shown) [Compound 310] | 20 to 50 | < 100 | – |
| COc1ccc2c(c1)-c1nn(CC3COC3)cc1Cc1c(-c3noc(C(C)(C)OC)n3)ncn1-2 [Compound 312] | 5 to 20 | < 100 | – |
| COCCn1cc2c(n1)-c1cc(OC)ccc1-n1cnc(-c3noc(COCC(F)(F)F)n3)c1C2 [Compound 313] | 5 to 20 | < 100 | – |
| COc1ccc2c(c1)-c1nn(CC3COC3)cc1Cc1c(-c3noc(COCC(F)(F)F)n3)ncn1-2 [Compound 314] | 5 to 20 | < 100 | – |
| COCc1noc(-c2ncn3c2Cc2cn(CCOC(F)(F)F)nc2-c2cc(OC)ccc2-3)n1 [Compound 315] | 20 to 50 | < 100 | – |
| CCOC(=O)c1ncn2c1CN(C)C(=O)c1cc(N=[N+]=[N-])ccc1-2 [Ro 15-4513] | – | – | level of Ro 15-4513 in cerebellum ([1]; tracer 1 μg/kg, after vehicle): 0.36 ± 0.02 ng/g; level of Ro 15-4513 in hippocampus ([1]; tracer 1 μg/kg, after vehicle): 1.93 ± 0.05 ng/g; levels of Ro 15-4513 in hippocampus compared with cerebellum ([1]; tracer 1 μg/kg, after vehicle): > 5 fold |
